Experimental data taken from US20060008512A1, “Composition and methods for improved animal performance” (priority 2004, published 2006).
Where two headings read alike, the source gives them in different places.

Key:
[1] = system: Hy-Line W-36 White Leghorn hens; conditions: for Egg Shell, % (washed, dried): 6 & 10 d rooms combined; for Whole egg weight (mean±SEM): 4 day period after start of test diets
Description: Experiment 2. […] The photoperiod was 17 hours of light per day (0330 hours to 2030 hours).
The objective was to use T4 to humanely induce molting in hens that are continuously provided with ad libitum access to palatable feed meeting or exceeding all National Research Council (1994) standards. Developing a fully efficacious yet affordable molting protocol was predicated on determining the minimum effective level for T4 supplementation. Factors that potentially may affect the required level of T4 supplementation include: (1) uncertainty regarding the efficiency of T4 absorption by the gastrointestinal tract, (2) the possibility that continuous dietary ingestion of T4 could trigger substantially different biological responses when compared single daily injections, and (3) the likelihood that daily T4 intake would diminish in parallel with molt-related reductions in feed intake associated with cessation in egg production. A spontaneous and voluntary loss of appetite (anorexia) commonly accompanies seasonal molting and broodiness in a variety of avian species (Berry, 2003; Webster, 2003). Accordingly, the responses of hens to diets containing 10, 20, and 40 mg T4/kg, to bracket the anticipated range of T4 needed to cause an effective molt, were determined.

[2] = system: fast-growing broiler chickens; conditions: low ambient temperature and pelleted feed; untreated 21.5%; cited from earlier work
[3] = system: 66-week-old caged laying hens; conditions: cited from earlier work
White Leghorn hens = conditions: excessive injected levels, e.g. 243 micrograms/100 g body weight; cited from earlier work
young rats = conditions: 10 mg L-thyroxine/kg diet; 400 mg magnesium/kg; cited from earlier work
[4] = 20 mg/kg of feed 10 d from day 5, Day 7
[5] = 20 mg/kg of feed 10 d from day 5, Day 10
[6] = 20 mg/kg of feed 10 d from day 5, Day 14
[7] = 20 mg/kg of feed 10 d from day 5, Day 30
[8] = 40 mg/kg of feed 6 d from day 5, Day 7
[9] = 40 mg/kg of feed 6 d from day 5, Day 10
[10] = 40 mg/kg of feed 6 d from day 5, Day 14
[11] = 40 mg/kg of feed 6 d from day 5, Day 30
[12] = 40 mg/kg of feed 10 d from day 5, Day 7
[13] = 40 mg/kg of feed 10 d from day 5, Day 10
[14] = 40 mg/kg of feed 10 d from day 5, Day 14
[15] = 40 mg/kg of feed 10 d from day 5, Day 30

N[C@@H](Cc1cc(I)c(Oc2cc(I)c(O)c(I)c2)c(I)c1)C(=O)O [L-thyroxine, 3,5,3′,5′-tetraiodo-L-thyronine]
Hen-day egg production ([1]; 20 mg/kg of feed 6 d from day 5, day 18): 39%
Hen-day egg production ([1]; 20 mg/kg of feed 6 d from day 5, day 20): 47%
Hen-day egg production ([1]; 20 mg/kg of feed 6 d from day 5, day 22): 64%
Hen-day egg production ([1]; 20 mg/kg of feed 6 d from day 5, day 24): 64%
Hen-day egg production ([1]; 20 mg/kg of feed 6 d from day 5, day 26): 78%
Hen-day egg production ([1]; 20 mg/kg of feed 6 d from day 5, day 28): 89%
Hen-day egg production ([1]; 20 mg/kg of feed 6 d from day 5, day 30): 61%
Body weight (BW) ([1]; 20 mg/kg of feed 10 d from day 5, Day 1): 1680 g
Body weight (BW) [1, 4]: 1533 g
Body weight change from day 1 (% BWC) [1, 4]: −8.8%
Body weight (BW) [1, 5]: 1431 g
Body weight change from day 1 (% BWC) [1, 5]: −14.8%
Body weight (BW) [1, 6]: 1373 g
Body weight change from day 1 (% BWC) [1, 6]: −18.3%
Body weight (BW) [1, 7]: 1448 g
Body weight change from day 1 (% BWC) [1, 7]: −13.8%
Egg Shell, % (washed, dried) ([1]; 20 mg/kg of feed, Days 2 to 4): 8.38 (n = 10) %
Egg Shell, % (washed, dried) ([1]; 20 mg/kg of feed, Days 5 to 6): 8.08 (n = 13) %
Egg Shell, % (washed, dried) ([1]; 20 mg/kg of feed, Days 7 to 8): 5.56 (n = 2) %
Egg production ([1]; 40 mg T4/kg diet for 10 days): cease completely
Body weight (BW) ([1]; 40 mg/kg of feed 6 d from day 5, Day 1): 1629 g
Body weight (BW) [1, 8]: 1443 g
Body weight change from day 1 (% BWC) [1, 8]: −11.4%
Body weight (BW) [1, 9]: 1350 g
Body weight change from day 1 (% BWC) [1, 9]: −17.1%
Body weight (BW) [1, 10]: 1396 g
Body weight change from day 1 (% BWC) [1, 10]: −14.3%
Body weight (BW) [1, 11]: 1481 g
Body weight change from day 1 (% BWC) [1, 11]: −9.1%
Hen-day egg production ([1]; 40 mg/kg of feed 6 d from day 5, day 4): 67%
Hen-day egg production ([1]; 40 mg/kg of feed 6 d from day 5, day 6): 42%
Hen-day egg production ([1]; 40 mg/kg of feed 6 d from day 5, day 8): 8%
Hen-day egg production ([1]; 40 mg/kg of feed 6 d from day 5, day 10): 0%
Hen-day egg production ([1]; 40 mg/kg of feed 6 d from day 5, day 12): 0%
Hen-day egg production ([1]; 40 mg/kg of feed 6 d from day 5, day 14): 0%
Hen-day egg production ([1]; 40 mg/kg of feed 6 d from day 5, day 16): 0%
Hen-day egg production ([1]; 40 mg/kg of feed 6 d from day 5, day 18): 8%
Hen-day egg production ([1]; 40 mg/kg of feed 6 d from day 5, day 20): 25%
Hen-day egg production ([1]; 40 mg/kg of feed 6 d from day 5, day 22): 25%
Hen-day egg production ([1]; 40 mg/kg of feed 6 d from day 5, day 24): 50%
Hen-day egg production ([1]; 40 mg/kg of feed 6 d from day 5, day 26): 17%
Hen-day egg production ([1]; 40 mg/kg of feed 6 d from day 5, day 28): 33%
Hen-day egg production ([1]; 40 mg/kg of feed 6 d from day 5, day 30): 33%
Body weight (BW) ([1]; 40 mg/kg of feed 10 d from day 5, Day 1): 1572 g
Body weight (BW) [1, 12]: 1392 g
Body weight change from day 1 (% BWC) [1, 12]: −11.5%
Body weight (BW) [1, 13]: 1309 g
Body weight change from day 1 (% BWC) [1, 13]: −16.7%
Body weight (BW) [1, 14]: 1245 g
Body weight change from day 1 (% BWC) [1, 14]: −20.8%
Body weight (BW) [1, 15]: 1322 g
Body weight change from day 1 (% BWC) [1, 15]: −15.9%
Egg Shell, % (washed, dried) ([1]; 40 mg/kg of feed, Days 2 to 4): 8.34 (n = 6) %
Egg Shell, % (washed, dried) ([1]; 40 mg/kg of feed, Days 5 to 6): 7.82 (n = 6) %
Egg Shell, % (washed, dried) ([1]; 40 mg/kg of feed, Days 7 to 8): 6.63 (n = 3) %
Mortality ([1]; 10, 20, 40 mg T4/kg diets, 6 or 10 days): No mortal-ity occurred
Whole egg weight (mean±SEM) ([1]; 10 ppm T4): 62 ± 2 g
Time to reduced egg production ([1]; 20 and 40 mg T4/kg feed): ≤ 4 days
Whole egg weight (mean±SEM) ([1]; 20 ppm T4): 65 ± 2 g
Whole egg weight (mean±SEM) ([1]; 40 ppm T4): 65 ± 3 g
Size of regressed reproductive tracts at necropsy ([1]; hens that had entirely ceased egg production after the test diets): ≤ 50 % normal size
Ascites [2]: 7%
Days to target body weight (30% loss) ([3]; 1-day fast or no fast followed by corn diet with or without thyroxine): 28 days
Days to target body weight (30% loss) ([3]; 1-day feed withdrawal, then grape pomace diet plus 10 mg thyroxine/kg): 16 days
Egg production from 66 to 98 weeks ([3]; grape pomace diet plus thyroxine): 64.7%
Mortality (White Leghorn hens): 47%
Weight gain in 16 days (young rats): 60 g
